From patent US10865191B2, “Heterocyclic compounds useful as modulators of TNF alpha” (BRISTOL-MYERS SQUIBB COMPANY, priority 2015, dated 2020)

Each compound was assayed against TNFα (Homo sapiens, UniProt P01375) (assay: TNF induced HEK-Blue assay (NF-kB-driven secreted alkaline phosphatase reporter)). Conditions: TNF induced HEK-Blue assay IC50 value, TNFα 0.5 ng/mL, HEK-Blue-CD40L cells, 18 h.
Type: cell-based
How it was run: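 HEK-Blue-CD40L cells (NF-kB-driven SEAP reporter), 20,000/well, added after 30 min pre-incubation of compound (0.004–25 μM final) with TNFα 0.5 ng/mL final at 37 °C; 18 h incubation. SEAP read with QUANTI-Blue at 620 nm; IC50 from 4-parameter logistic fit, normalized to unstimulated and stimulated DMSO controls.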

TNFα, sequence (P01375 77-233 limits assumed): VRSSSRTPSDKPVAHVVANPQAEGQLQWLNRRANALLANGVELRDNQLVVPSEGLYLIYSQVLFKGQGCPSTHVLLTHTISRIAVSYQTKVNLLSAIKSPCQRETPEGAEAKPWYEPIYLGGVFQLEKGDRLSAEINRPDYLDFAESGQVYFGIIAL

Compound	IC50
C[C@@H](Nc1c(Cl)cnc2ccc(-c3cnc(C(C)(C)O)nc3)cc12)c1cc(N2CCCC2)ccc1F [Example 364, (R)-2-(5-(3-chloro-4-((1-(2-fluoro-5-(pyrrolidin-1-yl)phenyl)ethyl)amino)quinolin-6-yl)pyrimidin-2-yl)propan-2-ol]	< 1000 nM
C[C@@H](Nc1c(Cl)cnc2ccc(-c3cnc(C(C)(C)O)nc3)cc12)c1cc(N)ccc1F [Example 374, (R)-2-(5-(4-((1-(5-amino-2-fluorophenyl)ethyl)amino)-3-chloroquinolin-6-yl)pyrimidin-2-yl)propan-2-ol]	< 1000 nM
C[C@@H](Nc1c(Cl)cnc2ccc(-c3cnc(C(C)(C)O)nc3)cc12)c1cc(C#N)ccc1F [Example 376, (R)-3-(1-((3-chloro-6-(2-(2-hydroxypropan-2-yl)pyrimidin-5-yl)quinolin-4-yl)amino)ethyl)-4-fluorobenzonitrile]	< 1000 nM

Same assay, conditions: TNFα 0.5 ng/mL, HEK-Blue-CD40L cells, 18 h; read-out: TNF induced HEK-Blue assay IC50 value

Compound	IC50
Cc1ccc(F)c([C@H](Nc2c(Cl)c(C)nc3ccc(-c4cnc(C(C)(C)O)nc4)cc23)C(F)F)c1 [Example 351, (S)-2-(5-(3-chloro-4-((2,2-difluoro-1-(2-fluoro-5-methylphenyl)ethyl)amino)-2-methylquinolin-6-yl)pyrimidin-2-yl)propan-2-ol]	< 1000 nM
C=Cc1ccc(F)c([C@H](Nc2c(Cl)c(C)nc3ccc(-c4cnc(C(C)(C)O)nc4)cc23)C(F)F)c1 [Example 352, (S)-2-(5-(3-chloro-4-((2,2-difluoro-1-(2-fluoro-5-vinylphenyl)ethyl)amino)-2-methylquinolin-6-yl)pyrimidin-2-yl)propan-2-ol]	< 1000 nM
Cc1nc2ccc(-c3cnc(C(C)(C)O)nc3)cc2c(-c2ccccc2-c2ccccc2)c1Cl [Example 353, 2-(5-(4-([1,1′-biphenyl]-2-yl)-3-chloro-2-methylquinolin-6-yl)pyrimidin-2-yl)propan-2-ol]	1000 to 10000 nM
COC(=O)N1CCC[C@H]([C@H](C)Nc2c(Cl)cnc3ccc(-c4cnc(C(C)(C)O)nc4)cc23)C1 [Example 354, (S)-methyl 3-((S)-1-((3-chloro-6-(2-(2-hydroxypropan-2-yl)pyrimidin-5-yl)quinolin-4-yl)amino)ethyl)piperidine-1-carboxylate]	< 1000 nM
Cc1nc2ccc(-c3cnc(C(C)(C)O)nc3)cc2c(N[C@H](C)c2cc(NC(=O)OC(C)(C)C)ccc2F)c1Cl [Example 359, tert-Butyl (R)-(3-(1-((3-chloro-6-(2-(2-hydroxypropan-2-yl)pyrimidin-5-yl)-2-methylquinolin-4-yl)amino)ethyl)-4-fluorophenyl)carbamate]	< 1000 nM
Cc1nc2ccc(-c3cnc(C(C)(C)O)nc3)cc2c(N[C@H](C)c2cc(N)ccc2F)c1Cl [Example 360, (R)-2-(5-(4-((1-(5-amino-2-fluorophenyl)ethyl)amino)-3-chloro-2-methylquinolin-6-yl)pyrimidin-2-yl)propan-2-ol]	< 1000 nM
Cc1nc2ccc(-c3cnc(C(C)(C)O)nc3)cc2c(N[C@H](C)c2cc(N3CCCC3=O)ccc2F)c1Cl [Example 361, (R)-1-(3-(1-((3-chloro-6-(2-(2-hydroxypropan-2-yl)pyrimidin-5-yl)-2-methylquinolin-4-yl)amino)ethyl)-4-fluorophenyl)pyrrolidin-2-one]	< 1000 nM
C[C@@H](Nc1c(Cl)cnc2ccc(-c3cnc(C(C)(C)O)nc3)cc12)c1cc(N2CCCC2=O)ccc1F [Example 362, (R)-1-(3-(1-((3-chloro-6-(2-(2-hydroxypropan-2-yl)pyrimidin-5-yl)quinolin-4-yl)amino)ethyl)-4-fluorophenyl)pyrrolidin-2-one]	< 1000 nM
C[C@@H](Nc1c(Cl)cnc2ccc(-c3cnc(C(C)(C)O)nc3)cc12)c1cccc(N2CCCC2=O)c1 [Example 363, (R)-1-(3-(1-((3-chloro-6-(2-(2-hydroxypropan-2-yl)pyrimidin-5-yl)quinolin-4-yl)amino)ethyl)phenyl)pyrrolidin-2-one]	1000 to 10000 nM
Cc1nc2ccc(-c3cnc(C(C)(C)O)nc3)cc2c(N[C@H](C)c2cc(-n3cccn3)ccc2F)c1Cl [Example 365, (R)-2-(5-(3-chloro-4-((1-(2-fluoro-5-(1H-pyrazol-1-yl)phenyl)ethyl)amino)-2-methylquinolin-6-yl)pyrimidin-2-yl)propan-2-ol]	< 1000 nM
C[C@@H](Nc1c(Cl)cnc2ccc(-c3cnc(C(C)(C)O)nc3)cc12)c1cc(-n2cccn2)ccc1F [Example 366, (R)-2-(5-(3-chloro-4-((1-(2-fluoro-5-(1H-pyrazol-1-yl)phenyl)ethyl)amino)quinolin-6-yl)pyrimidin-2-yl)propan-2-ol]	< 1000 nM
C[C@@H](Nc1c(Cl)cnc2ccc(-c3cnc(C(C)(C)O)nc3)cc12)c1cc(N2CCOC2=O)ccc1F [Example 367, (R)-3-(3-(1-((3-chloro-6-(2-(2-hydroxypropan-2-yl)pyrimidin-5-yl)quinolin-4-yl)amino)ethyl)-4-fluorophenyl) oxazolidin-2-one]	< 1000 nM
C[C@@H](Nc1c(Cl)cnc2ccc(-c3cnc(C(C)(C)O)nc3)cc12)c1cccc(-n2cccn2)c1 [Example 368, (R)-2-(5-(4-((1-(3-(1H-pyrazol-1-yl)phenyl)ethyl)amino)-3-chloroquinolin-6-yl)pyrimidin-2-yl)propan-2-ol]	10000 to 25000 nM
C[C@@H](Nc1c(Cl)cnc2ccc(-c3cnc(C(C)(C)O)nc3)cc12)c1cc(N2CCOCC2=O)ccc1F [Example 369, (R)-4-(3-(1-((3-chloro-6-(2-(2-hydroxypropan-2-yl)pyrimidin-5-yl)quinolin-4-yl)amino)ethyl)-4-fluorophenyl) morpholin-3-one]	< 1000 nM
C[C@@H](Nc1c(Cl)cnc2ccc(-c3cnc(C(C)(C)O)nc3)cc12)c1cc(N2CCNC2=O)ccc1F [Example 370, (R)-1-(3-(1-((3-chloro-6-(2-(2-hydroxypropan-2-yl)pyrimidin-5-yl)quinolin-4-yl)amino)ethyl)-4-fluorophenyl)imidazolidin-2-one]	< 1000 nM
C[C@@H](Nc1c(Cl)cnc2ccc(-c3cnc(C(C)(C)O)nc3)cc12)c1cc(-n2cnnc2)ccc1F [Example 371, (R)-2-(5-(3-chloro-4-((1-(2-fluoro-5-(4H-1,2,4-triazol-4-yl)phenyl)ethyl)amino)quinolin-6-yl)pyrimidin-2-yl)propan-2-ol]	< 1000 nM
Cc1nc2ccc(-c3cnc(C(C)(C)O)nc3)cc2c(N[C@@H](c2cc(N3CCNC3=O)ccc2F)C(F)F)c1Cl [Example 372, (S)-1-(3-(1-((3-chloro-6-(2-(2-hydroxypropan-2-yl)pyrimidin-5-yl)-2-methylquinolin-4-yl)amino)-2,2-difluoroethyl)-4-fluorophenyl) imidazolidin-2-one]	< 1000 nM
Cc1nc2ccc(-c3cnc(C(C)(C)O)nc3)cc2c(N[C@H](C)c2cc(N3CCNC3=O)ccc2F)c1Cl [Example 373, (R)-1-(3-(1-((3-chloro-6-(2-(2-hydroxypropan-2-yl)pyrimidin-5-yl)-2-methylquinolin-4-yl)amino)ethyl)-4-fluorophenyl)imidazolidin-2-one]	< 1000 nM
Cc1nc2ccc(-c3cnc(C(C)(C)O)nc3)cc2c(N[C@H](C)c2cc(C#N)ccc2F)c1Cl [Example 375, (R)-3-(1-((3-chloro-6-(2-(2-hydroxypropan-2-yl)pyrimidin-5-yl)-2-methylquinolin-4-yl)amino)ethyl)-4-fluorobenzonitrile]	< 1000 nM
